Earlier results in patent US8668932B2 (priority 2003, dated 2014).

What was measured:
[1] = test system: neuronal norepinephrine reuptake
[2] = test system: dopamine reuptake
[3] = test system: histaminergic receptors
[4] = not given; remark: listed apart in the source
[5] = test system: monoamine oxidase
[6] = test system: alpha-1 adrenergic receptors
[7] = for elimination half-life (T½): in vivo
[8] = test system: neuronal serotonin reuptake

SMILES | inhibition of neuronal norepinephrine reuptake [1] | inhibition of dopamine reuptake [2] | plasma protein binding | affinity for histaminergic receptors [3] | pKa [4] | inhibition of monoamine oxidase [5] | affinity for alpha-1 adrenergic receptors [6] | elimination half-life (T½) [7] [h] | absolute bioavailability ([7]; oral) | time to steady-state concentrations ([7]; oral multiple dose therapy) | fraction of dose absorbed ([7]; single oral dose, mass balance studies) | inhibition of neuronal serotonin reuptake [8]
COc1ccc(C(CN(C)C)C2(O)CCCCC2)cc1.Cl (racemic) [venlafaxine, (R/S)-1-[2-(dimethylamino)-1-(4-methoxyphenyl)ethyl]cyclohexanol hydrochloride] | potent inhibitors | weak inhibitors | approximately 30% | no significant affinity | 9.4 | does not inhibit | no significant affinity | 5 ± 2 | about 45% | three | at least 92% | 
CN(C)CC(c1ccc(O)cc1)C1(O)CCCCC1 (stereo not drawn) [ODV, O-desmethylvenlafaxine] | potent inhibitors | weak inhibitors |  |  |  |  |  | 11 ± 2 |  |  |  | potent inhibitors
